In brackets after ≈: the same amount, converted by molar mass.
What was measured:
[1] = test system: Fusarium moniliforme (Fm); assay: Growth inhibition assay of fungal pathogens, Fm; type: cell-based; conditions: Fusarium verticillioides; 48 hours; read-out: Concentration at 90% Inhibition, Fm
Summary of the method: (§1)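 Spores in 17% V8 liquid medium were exposed to compound at final 50, 10 and 2 ppm or 2, 0.4 and 0.08 ppm with 2% DMSO. After 48 h, OD600 (blank-subtracted) and visual ratings were compared with the 2% DMSO control to give percent growth inhibition.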

Botrtyis cinerea (Bc) = assay: Growth inhibition assay of fungal pathogens, Bc; type: cell-based; conditions: 48 hours; read-out: Concentration at 90% Inhibition, Bc
Summary of the method: as §1

Rhizoctonia solani (Rs) = assay: Growth inhibition assay of fungal pathogens, Rs; type: cell-based; conditions: 48 hours, read-out: Concentration at 90% Inhibition, Rs
Human ACC2 = Human ACC2 (Homo sapiens, UniProt O00763); assay: In vitro ACC2 inhibition assay (ADP-Glo), human ACC2; type: biochemical; conditions: 5 nM ACC2, 20 μM ATP, 20 μM acetyl-CoA
Septoria tritici (St) = assay: Growth inhibition assay of fungal pathogens, St; type: cell-based; conditions: Zymoseptoria tritici; 48 hours; read-out: Concentration at 90% Inhibition, St
Summary of the method: as §1

[2] = test system: Collectotrichum graminicola (Cg); assay: Growth inhibition assay of fungal pathogens, Cg; type: cell-based; conditions: 48 hours; read-out: Concentration at 90% Inhibition, Cg
Summary of the method: as §1

[3] = test system: Blumeria graminis f sp. hordei; assay: Foliar protection test, barley powdery mildew control; type: in vivo, Blumeria graminis f sp. hordei on Hordeum vulgare cv. Perry; conditions: 168 h, compound concentration 50 ppm, foliar spray, evaluated 7 days after inoculation, read-out: Barley Powdery Mildew Control at 50 ppm
Summary of the method: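 Barley cv. Perry at first true leaf (6 days) sprayed to wetness on both leaf sides with compound in 5% acetone/0.005% Tween 80, typically at 200, 100, 50, 10 or 2 ppm. Inoculated 24 h later by shaking spores from colonized plants; kept at 20-22 °C, 70% RH. Mildew colonization scored 7 days later as percent control.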

Diplodia maydis (Dm) = assay: Growth inhibition assay of fungal pathogens, Dm; type: cell-based; conditions: Stenocarpella maydis; 48 hours; read-out: Concentration at 90% Inhibition, Dm
Summary of the method: as §1

[4] = compound concentration 10 ppm, foliar spray, evaluated 7 days after inoculation
[5] = test system: Fusarium virguliforme (Fv); assay: Growth inhibition assay of fungal pathogens, Fv; type: cell-based; conditions: 48 hours, read-out: Concentration at 90% Inhibition, Fv
Summary of the method: as §1

[6] = test system: Phytophthora capsici (Pc); assay: Growth inhibition assay of fungal pathogens, Pc; type: cell-based; conditions: 48 hours, read-out: Concentration at 90% Inhibition, Pc
Summary of the method: as §1

Fungal ACC2 = Fungal ACC2 (UniProt Q00955); conditions: read-out: Fungal ACC2 (IC50, in vitro ACC2 inhibition)
[7] = test system: C. parapsilosis ATCC 22019; assay: Anti-Fungal Activity Assay (broth microtiter MIC), C. parapsilosis; type: cell-based, Candida parapsilosis; conditions: Lodderomyces parapsilosis, ATCC22019, 48 h, 3 replicates; MIC recorded at 48 h; read-out: MIC C. parapsilosis ATCC 22019
Summary of the method: (§2)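 MIC taken as visual growth inhibition versus the growth control, mostly at 48 h (soraphen also at 24 h). Following CLSI M27-A3, colonies grown overnight at 35° C on Sabouraud dextrose agar were suspended in RPMI 1640+MOPS; test agents came from 1 mg/mL DMSO stocks.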

C. albicans ATCC 90028 = assay: Anti-Fungal Activity Assay (broth microtiter MIC), C. albicans; type: cell-based, Candida albicans; conditions: Candida albicans, ATCC90028, 48 h, 3 replicates; MIC recorded at 48 h; read-out: MIC C. albicans ATCC 90028
Summary of the method: as §2

C. krusei ATCC 6258 = assay: Anti-Fungal Activity Assay (broth microtiter MIC), C. krusei; type: cell-based, Candida krusei; conditions: Pichia kudriavzevii, ATCC6258, 48 h, 3 replicates; MIC recorded at 48 h; read-out: MIC C. krusei ATCC 6258
Summary of the method: as §2

Fungal ACC2, sequence (Q00955 whole entry): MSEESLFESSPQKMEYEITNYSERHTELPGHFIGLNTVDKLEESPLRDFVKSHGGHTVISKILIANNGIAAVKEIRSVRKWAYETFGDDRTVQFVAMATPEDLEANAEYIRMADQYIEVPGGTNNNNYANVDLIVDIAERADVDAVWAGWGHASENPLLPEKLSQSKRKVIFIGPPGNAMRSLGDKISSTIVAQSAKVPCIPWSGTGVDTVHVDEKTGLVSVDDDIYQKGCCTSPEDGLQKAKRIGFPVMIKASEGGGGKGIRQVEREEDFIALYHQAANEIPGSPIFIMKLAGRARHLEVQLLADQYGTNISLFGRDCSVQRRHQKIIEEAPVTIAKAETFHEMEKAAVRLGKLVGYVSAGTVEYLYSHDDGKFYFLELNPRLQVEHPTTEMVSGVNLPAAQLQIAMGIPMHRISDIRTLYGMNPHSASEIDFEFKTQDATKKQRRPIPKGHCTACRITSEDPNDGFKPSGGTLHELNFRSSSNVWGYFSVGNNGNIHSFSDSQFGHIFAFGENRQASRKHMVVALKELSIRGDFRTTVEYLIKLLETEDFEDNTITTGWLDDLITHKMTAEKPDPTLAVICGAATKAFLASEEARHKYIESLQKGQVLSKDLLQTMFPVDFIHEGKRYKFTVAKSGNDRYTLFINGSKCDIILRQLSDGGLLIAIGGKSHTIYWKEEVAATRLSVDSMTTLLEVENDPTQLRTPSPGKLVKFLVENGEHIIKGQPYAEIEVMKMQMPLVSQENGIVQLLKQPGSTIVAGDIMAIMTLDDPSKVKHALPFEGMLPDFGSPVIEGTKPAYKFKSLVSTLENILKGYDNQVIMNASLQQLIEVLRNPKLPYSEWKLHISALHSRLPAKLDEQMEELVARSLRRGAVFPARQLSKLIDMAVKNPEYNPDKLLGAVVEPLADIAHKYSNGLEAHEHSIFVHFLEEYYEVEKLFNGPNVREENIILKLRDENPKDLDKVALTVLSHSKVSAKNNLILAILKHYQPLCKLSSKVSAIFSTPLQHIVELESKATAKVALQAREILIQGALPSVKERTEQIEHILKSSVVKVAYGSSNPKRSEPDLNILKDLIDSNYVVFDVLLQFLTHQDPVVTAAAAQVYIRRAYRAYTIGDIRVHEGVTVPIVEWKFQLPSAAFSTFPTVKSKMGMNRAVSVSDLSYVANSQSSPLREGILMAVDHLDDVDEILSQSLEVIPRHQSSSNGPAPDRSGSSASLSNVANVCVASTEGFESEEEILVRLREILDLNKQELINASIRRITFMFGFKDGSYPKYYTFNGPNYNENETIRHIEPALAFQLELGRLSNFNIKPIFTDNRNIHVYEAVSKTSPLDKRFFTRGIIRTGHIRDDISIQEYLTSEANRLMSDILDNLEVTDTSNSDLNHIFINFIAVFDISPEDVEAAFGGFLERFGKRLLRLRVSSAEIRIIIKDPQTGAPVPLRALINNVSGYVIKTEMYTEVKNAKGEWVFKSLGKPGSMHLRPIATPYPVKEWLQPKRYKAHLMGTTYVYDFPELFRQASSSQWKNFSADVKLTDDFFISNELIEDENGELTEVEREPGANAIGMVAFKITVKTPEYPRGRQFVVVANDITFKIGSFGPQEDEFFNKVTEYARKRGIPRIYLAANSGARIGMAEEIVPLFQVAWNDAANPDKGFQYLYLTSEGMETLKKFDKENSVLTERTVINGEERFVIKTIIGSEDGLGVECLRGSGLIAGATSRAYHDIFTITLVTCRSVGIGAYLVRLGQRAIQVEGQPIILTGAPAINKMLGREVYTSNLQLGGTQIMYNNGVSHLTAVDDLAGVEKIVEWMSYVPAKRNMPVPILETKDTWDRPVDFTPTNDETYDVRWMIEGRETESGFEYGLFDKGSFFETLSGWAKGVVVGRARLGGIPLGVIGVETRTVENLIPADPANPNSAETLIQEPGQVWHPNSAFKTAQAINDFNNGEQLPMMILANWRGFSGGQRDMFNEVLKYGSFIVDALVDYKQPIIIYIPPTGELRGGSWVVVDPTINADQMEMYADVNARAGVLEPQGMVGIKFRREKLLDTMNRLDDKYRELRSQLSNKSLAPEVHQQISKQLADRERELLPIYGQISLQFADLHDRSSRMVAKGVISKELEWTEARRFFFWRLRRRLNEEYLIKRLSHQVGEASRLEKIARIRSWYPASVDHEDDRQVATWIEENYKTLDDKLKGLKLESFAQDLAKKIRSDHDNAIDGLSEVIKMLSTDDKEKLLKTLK
Human ACC2, sequence (O00763 whole entry): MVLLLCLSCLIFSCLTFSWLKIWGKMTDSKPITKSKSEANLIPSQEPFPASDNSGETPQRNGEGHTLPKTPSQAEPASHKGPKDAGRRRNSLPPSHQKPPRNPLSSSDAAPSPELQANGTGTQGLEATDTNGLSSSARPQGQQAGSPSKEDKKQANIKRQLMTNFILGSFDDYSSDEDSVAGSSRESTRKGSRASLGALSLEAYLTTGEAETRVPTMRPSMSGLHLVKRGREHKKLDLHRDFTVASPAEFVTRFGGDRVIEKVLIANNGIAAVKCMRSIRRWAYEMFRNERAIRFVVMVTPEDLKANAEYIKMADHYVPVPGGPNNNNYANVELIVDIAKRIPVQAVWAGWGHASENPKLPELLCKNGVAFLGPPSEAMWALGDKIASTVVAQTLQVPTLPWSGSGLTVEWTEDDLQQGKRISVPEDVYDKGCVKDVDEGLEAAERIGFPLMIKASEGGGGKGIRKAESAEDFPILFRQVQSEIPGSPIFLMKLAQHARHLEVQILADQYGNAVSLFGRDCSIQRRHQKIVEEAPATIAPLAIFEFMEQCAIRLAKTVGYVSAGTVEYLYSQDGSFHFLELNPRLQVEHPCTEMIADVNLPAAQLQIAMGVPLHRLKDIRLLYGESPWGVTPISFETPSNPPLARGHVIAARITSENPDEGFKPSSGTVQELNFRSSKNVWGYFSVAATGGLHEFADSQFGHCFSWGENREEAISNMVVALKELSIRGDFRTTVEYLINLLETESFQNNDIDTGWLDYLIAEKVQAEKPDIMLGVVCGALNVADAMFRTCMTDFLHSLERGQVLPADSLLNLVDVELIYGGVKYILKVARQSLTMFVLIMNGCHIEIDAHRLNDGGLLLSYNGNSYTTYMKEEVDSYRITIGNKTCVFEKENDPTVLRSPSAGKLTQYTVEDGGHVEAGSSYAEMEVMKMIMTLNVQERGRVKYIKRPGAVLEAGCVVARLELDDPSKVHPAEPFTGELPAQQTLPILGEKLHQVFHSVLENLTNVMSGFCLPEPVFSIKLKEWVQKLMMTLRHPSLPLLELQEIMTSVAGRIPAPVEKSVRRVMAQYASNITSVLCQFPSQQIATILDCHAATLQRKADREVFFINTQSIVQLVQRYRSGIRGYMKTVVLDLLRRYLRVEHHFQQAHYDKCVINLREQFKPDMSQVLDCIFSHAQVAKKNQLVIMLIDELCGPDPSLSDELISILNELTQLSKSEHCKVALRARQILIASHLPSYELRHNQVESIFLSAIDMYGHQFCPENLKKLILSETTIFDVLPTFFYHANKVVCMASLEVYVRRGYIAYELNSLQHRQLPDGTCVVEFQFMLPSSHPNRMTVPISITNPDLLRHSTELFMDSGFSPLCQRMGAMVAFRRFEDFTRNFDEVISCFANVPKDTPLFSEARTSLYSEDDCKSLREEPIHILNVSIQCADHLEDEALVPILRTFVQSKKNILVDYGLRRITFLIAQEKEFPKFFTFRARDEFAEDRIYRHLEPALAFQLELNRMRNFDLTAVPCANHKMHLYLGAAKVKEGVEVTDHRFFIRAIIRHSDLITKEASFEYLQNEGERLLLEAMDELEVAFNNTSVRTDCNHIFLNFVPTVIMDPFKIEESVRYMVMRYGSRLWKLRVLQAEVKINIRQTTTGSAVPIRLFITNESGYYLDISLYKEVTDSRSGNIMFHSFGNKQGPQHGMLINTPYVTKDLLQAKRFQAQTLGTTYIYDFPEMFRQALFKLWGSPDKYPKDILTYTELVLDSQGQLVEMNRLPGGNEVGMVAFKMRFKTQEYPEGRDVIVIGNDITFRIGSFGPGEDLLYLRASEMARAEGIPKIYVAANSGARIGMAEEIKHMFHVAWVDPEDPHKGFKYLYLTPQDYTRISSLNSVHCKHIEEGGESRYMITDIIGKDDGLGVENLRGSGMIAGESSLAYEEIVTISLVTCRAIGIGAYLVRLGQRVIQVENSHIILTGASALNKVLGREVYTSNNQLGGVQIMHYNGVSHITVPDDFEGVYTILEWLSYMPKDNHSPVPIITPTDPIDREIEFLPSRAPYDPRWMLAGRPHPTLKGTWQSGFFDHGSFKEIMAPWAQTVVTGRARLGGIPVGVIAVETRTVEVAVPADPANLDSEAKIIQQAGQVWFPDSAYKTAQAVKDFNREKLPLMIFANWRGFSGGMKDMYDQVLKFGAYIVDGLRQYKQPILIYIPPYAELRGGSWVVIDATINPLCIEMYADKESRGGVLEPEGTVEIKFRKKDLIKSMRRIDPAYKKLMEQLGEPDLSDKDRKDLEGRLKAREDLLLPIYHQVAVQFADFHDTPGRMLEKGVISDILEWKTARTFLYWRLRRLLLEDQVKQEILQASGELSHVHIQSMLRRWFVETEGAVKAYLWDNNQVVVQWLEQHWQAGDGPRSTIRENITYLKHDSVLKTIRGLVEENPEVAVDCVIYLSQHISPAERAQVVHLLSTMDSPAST

SMILES | IC90 [1] [µg/mL] | IC90 (Botrtyis cinerea (Bc)) [µg/mL] | IC90 (Rhizoctonia solani (Rs)) [µg/mL] | IC50 (Human ACC2) [nM] | IC90 (Septoria tritici (St)) [µg/mL] | IC90 [2] [µg/mL] | pest or weed control at 50 ppm [3] [%] | IC90 (Diplodia maydis (Dm)) [µg/mL] | Barley Powdery Mildew Control at 10 ppm [4] | IC90 [5] [µg/mL] | IC90 [6] [µg/mL] | IC50 (Fungal ACC2) [nM] | MIC [7] [µg/mL] | MIC (C. albicans ATCC 90028) [µg/mL] | MIC (C. krusei ATCC 6258) [µg/mL]
COCCO[C@@H](Cn1c(=O)n([C@H]2CCN(C)C2=O)c(=O)c2c(C)c(-n3nccn3)sc21)c1cc(F)ccc1OC [Compound I-27, 1-((R)-2-(5-fluoro-2-methoxyphenyl)-2-(2-methoxy-ethoxy)ethyl)-5-methyl-3-((S)-1-methyl-2-oxopyrrolidin-3-yl)-6-(2H-1,2,3-triazol-2-yl)thieno[2,3-d]pyrimidine-2,4(1H,3H)-dione] | 2 (≈ 3.49 µM) | 2 (≈ 3.49 µM) | > 50 | 10 to 100 | > 50 | > 50 | 50 to 69 | > 50 | D (provided a compound having <25% control of barley powdery mildew) | 10 (≈ 17.5 µM) | > 50 | 2 to 10 | 2.1 to 4 (≈ 3.67 to 6.99 µM) | 2.1 to 4 (≈ 3.67 to 6.99 µM) | 2.1 to 4 (≈ 3.67 to 6.99 µM)
COc1ccc(F)cc1[C@H](Cn1c(=O)n([C@H]2CCCN(C)C2=O)c(=O)c2c(C)c(-n3nccn3)sc21)OCCO [Compound I-72, 1-((R)-2-(5-fluoro-2-methoxyphenyl)-2-(2-hydroxyethoxy)ethyl)-5-methyl-3-((S)-1-methyl-2-oxopiperidin-3-yl)-6-(2H-1,2,3-triazol-2-yl)thieno[2,3-d]pyrimidine-2,4(1H,3H)-dione] | 2 (≈ 3.49 µM) | > 50 | 2 (≈ 3.49 µM) | 2 to 10 | > 50 | 10 (≈ 17.5 µM) | 25 to 49 | 10 (≈ 17.5 µM) | D (provided a compound having <25% control of barley powdery mildew) | 2 (≈ 3.49 µM) | > 50 | 0.7 to 2 | 2.1 to 4 (≈ 3.67 to 6.99 µM) | 2.1 to 4 (≈ 3.67 to 6.99 µM) | 2.1 to 4 (≈ 3.67 to 6.99 µM)
COCCO[C@@H](Cn1c(=O)n([C@@H]2CCCNC2=O)c(=O)c2c(C)c(-n3nccn3)sc21)c1cc(F)ccc1OC [Compound I-30, 1-((R)-2-(5-fluoro-2-methoxyphenyl)-2-(2-methoxy-ethoxy)ethyl)-5-methyl-3-((R)-2-oxopiperidin-3-yl)-6-(2H-1,2,3-triazol-2-yl)thieno[2,3-d]pyrimidine-2,4(1H,3H)-dione] | > 50 | 10 (≈ 17.5 µM) | > 50 | 10 to 100 | > 50 | > 50 | 50 to 69 | > 50 | D (provided a compound having <25% control of barley powdery mildew) | > 50 | > 50 | 0.7 to 2 | 2.1 to 4 (≈ 3.67 to 6.99 µM) | 2.1 to 4 (≈ 3.67 to 6.99 µM) | 2.1 to 4 (≈ 3.67 to 6.99 µM)
COCCO[C@@H](Cn1c(=O)n([C@@H]2CCN(C)C2=O)c(=O)c2c(C)c(-n3nccn3)sc21)c1cc(F)ccc1OC [Compound I-28, 1-((R)-2-(5-fluoro-2-methoxyphenyl)-2-(2-methoxy-ethoxy)ethyl)-5-methyl-3-((R)-1-methyl-2-oxopyrrolidin-3-yl)-6-(2H-1,2,3-triazol-2-yl)thieno[2,3-d]pyrimidine-2,4(1H, 3H)-dione] | 2 (≈ 3.49 µM) | 2 (≈ 3.49 µM) | 10 (≈ 17.5 µM) | 10 to 100 | > 50 | > 50 | > 85 | > 50 | A (provided a compound having from 70% to 84% control of barley powdery mildew) | > 50 | > 50 | 2 to 10 | 2.1 to 4 (≈ 3.67 to 6.99 µM) | 2.1 to 4 (≈ 3.67 to 6.99 µM) | 2.1 to 4 (≈ 3.67 to 6.99 µM)
COc1ccc(F)cc1[C@H](Cn1c(=O)n([C@H]2CCCNC2=O)c(=O)c2c(C)c(-n3nccn3)sc21)OCCC#N [Compound I-110, 3-((R)-1-(5-fluoro-2-methoxyphenyl)-2-(5-methyl-2,4-dioxo-3-((S)-2-oxopiperidin-3-yl)-6-(2H-1,2,3-triazol-2-yl)-3,4-dihydrothieno[2,3-d]pyrimidin-1 (2H)-yl)ethoxy)propanenitrile] | 2 (≈ 3.52 µM) | 2 (≈ 3.52 µM) | 2 (≈ 3.52 µM) | 10 to 100 | > 50 | 10 (≈ 17.6 µM) | 50 to 69 | > 50 | D (provided a compound having <25% control of barley powdery mildew) | 10 (≈ 17.6 µM) | > 50 | 0.7 to 2 | 2.1 to 4 (≈ 3.7 to 7.05 µM) | 2.1 to 4 (≈ 3.7 to 7.05 µM) | 2.1 to 4 (≈ 3.7 to 7.05 µM)
COc1ccc(F)cc1[C@H](Cn1c(=O)n([C@H]2CCNC2=O)c(=O)c2c(C)c(-n3nccn3)sc21)OCCO [Compound I-80, 1-((R)-2-(5-fluoro-2-methoxyphenyl)-2-(2-hydroxy-ethoxy)ethyl)-5-methyl-3-((S)-2-oxopyrrolidin-3-yl)-6-(2H-1,2,3-triazol-2-yl)thieno[2,3-d]pyrimidine-2,4(1H,3H)-dione] | 2 (≈ 3.67 µM) | 2 (≈ 3.67 µM) | 10 (≈ 18.4 µM) | 2 to 10 | > 50 | > 50 | 25 to 49 | > 50 | D (provided a compound having <25% control of barley powdery mildew) | 10 (≈ 18.4 µM) | > 50 | 0.7 to 2 | 2.1 to 4 (≈ 3.86 to 7.35 µM) | 2.1 to 4 (≈ 3.86 to 7.35 µM) | 2.1 to 4 (≈ 3.86 to 7.35 µM)
COc1ccc(F)cc1[C@H](Cn1c(=O)n([C@H]2CCNC2=O)c(=O)c2c(C)c(-n3nccn3)sc21)OCCC#N [Compound I-106, 3-((R)-1-(5-fluoro-2-methoxyphenyl)-2-(5-methyl-2,4-dioxo-3-((S)-2-oxopyrrolidin-3-yl)-6-(2H-1,2,3-triazol-2-yl)-3,4-dihydrothieno[2,3-d]pyrimidin-1(2H)-yl)ethoxy)propanenitrile] | 2 (≈ 3.61 µM) | 2 (≈ 3.61 µM) | 2 (≈ 3.61 µM) | 10 to 100 | > 50 | > 50 | 25 to 49 | > 50 | D (provided a compound having <25% control of barley powdery mildew) | 10 (≈ 18.1 µM) | > 50 | 0.7 to 2 | 2.1 to 4 (≈ 3.79 to 7.23 µM) | 2.1 to 4 (≈ 3.79 to 7.23 µM) | 2.1 to 4 (≈ 3.79 to 7.23 µM)
COCCO[C@@H](Cn1c(=O)n([C@H]2CCCNC2=O)c(=O)c2c(C)c(-n3nccn3)sc21)c1cc(F)ccc1OC [Compound I-29, 1-((R)-2-(5-fluoro-2-methoxyphenyl)-2-(2-methoxy-ethoxy)ethyl)-5-methyl-3-((S)-2-oxopiperidin-3-yl)-6-(2H-1,2,3-triazol-2-yl)thieno[2,3-d]pyrimidine-2,4(1H,3H)-dione] | 10 (≈ 17.5 µM) | 10 (≈ 17.5 µM) | > 50 | 10 to 100 | > 50 | > 50 | 70 to 84 | > 50 | C (provided a compound having from 25 to 49% control of barley powdery mildew) | > 50 | > 50 | 0.7 to 2 | 2.1 to 4 (≈ 3.67 to 6.99 µM) | 2.1 to 4 (≈ 3.67 to 6.99 µM) | 2.1 to 4 (≈ 3.67 to 6.99 µM)
